Reference: US10016418B2, “Compounds useful as modulators of TRPM8” (Senomyx, Inc., priority 2010, dated 2018)

Assays:
hTRPM8 = molecular target: T1, hTRPM8 (Homo sapiens, UniProt Q7Z2W7); assay: hTRPM8 agonist assay in a mammalian cell line stably expressing hTRPM8; format: cell-based; settings: for EC50 WS-3 Ratio: EC50 ratio to WS-3
T1 construct: expressed in transfected cells
Protocol: A mammalian cell line derivative which stably expresses hTRPM8 was used in biological assays in association with testing the present compounds with cool-tasting or -feeling properties (Servant et al. US 2007/0259354 A1 and references cited therein). Typical compound concentrations tested were 100 μM, 50 μM, 10 μM, 1 μM, and 0.5 μM. The present compounds have shown strong activity as agonists of hTRPM8. Assay results for compounds are illustrated in Table 1 below. Specifically, the Examples listed in Table 1, i.e., Compounds A1 to Compounds U10 are the specific compounds, i.e., Examples, as described above.

[1] = Cool Line Scale Test (sensory panel, 15 point line scale, WS-3 reference); format: in vivo, human
Protocol: All samples made with Low Sodium Buffer (LSB) pH ˜7.1 and contain 0.1% ethanol.
Compounds are rated on a 15 point line scale where 45 μM WS-3 (N-Ethyl-p-menthane-3-carboxamide) is ranked as a 5 in cool intensity. In most cases our compounds are tested to determine at what concentration the cooling intensity is equivalent to 45 μM WS-3. In each test, the panelist is presented with a 0 μM control sample, a 45 μM WS-3 control sample and the experimental compound sample and asked to rate the cooling intensity of each sample. Panelists are also asked to rate bitterness. In the table below there was no significant bitterness detected unless otherwise noted. Also, in the table below, n represents the number of tests completed for a given experiment (#panelists x #repetitions).
All samples were prepared with Low Sodium Buffer (LSB) pH ˜7.1 and contain 0.1% ethanol

[2] = Table 1, cell line stably expressing hTRPM8
[3] = Table 7, scaffold T7, Ar phenyl vs thienyl

T1 sequence (Q7Z2W7 whole entry): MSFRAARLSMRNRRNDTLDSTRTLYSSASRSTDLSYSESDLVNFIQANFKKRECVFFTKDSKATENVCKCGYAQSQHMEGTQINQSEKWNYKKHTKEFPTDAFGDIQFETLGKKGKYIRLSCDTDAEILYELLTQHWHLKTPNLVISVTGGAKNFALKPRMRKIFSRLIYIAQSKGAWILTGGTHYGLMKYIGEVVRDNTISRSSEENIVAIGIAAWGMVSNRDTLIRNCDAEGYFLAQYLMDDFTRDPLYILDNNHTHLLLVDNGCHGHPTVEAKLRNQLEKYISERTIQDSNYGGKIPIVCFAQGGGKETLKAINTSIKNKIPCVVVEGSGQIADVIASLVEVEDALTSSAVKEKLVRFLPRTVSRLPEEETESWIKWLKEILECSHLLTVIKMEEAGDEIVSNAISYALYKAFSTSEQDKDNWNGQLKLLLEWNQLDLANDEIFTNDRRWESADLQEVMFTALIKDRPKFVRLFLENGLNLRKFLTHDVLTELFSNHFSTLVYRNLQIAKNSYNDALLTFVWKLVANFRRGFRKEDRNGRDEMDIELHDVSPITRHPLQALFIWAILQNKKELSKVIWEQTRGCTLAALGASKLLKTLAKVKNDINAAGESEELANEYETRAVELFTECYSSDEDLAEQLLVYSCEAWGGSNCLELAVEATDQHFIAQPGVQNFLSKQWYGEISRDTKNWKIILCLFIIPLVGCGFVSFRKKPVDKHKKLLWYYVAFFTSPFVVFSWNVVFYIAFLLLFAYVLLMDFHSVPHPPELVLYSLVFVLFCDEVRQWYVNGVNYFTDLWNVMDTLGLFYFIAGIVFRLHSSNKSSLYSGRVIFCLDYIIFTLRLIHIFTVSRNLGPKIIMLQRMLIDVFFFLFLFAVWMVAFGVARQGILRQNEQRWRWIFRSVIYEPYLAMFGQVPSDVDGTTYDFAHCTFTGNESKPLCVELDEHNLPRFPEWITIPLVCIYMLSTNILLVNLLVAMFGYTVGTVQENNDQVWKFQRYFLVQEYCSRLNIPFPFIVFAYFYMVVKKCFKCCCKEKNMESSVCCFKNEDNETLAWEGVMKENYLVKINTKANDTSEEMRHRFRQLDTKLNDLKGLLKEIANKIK

Q: For `CCN(Cc1cccs1)C(=O)/C=C/c1ccc2c(c1)OCO2`, which EC50 (hTRPM8; Table 8, scaffold T8) is on record?
A: Its EC50 is > 1 nM.

Q: What does the source list for `O=C(COc1ccc2c(c1)CCC2)N(Cc1cccs1)c1cc[nH]n1` [Example A1, 2-(2,3-dihydro-1H-inden-5-yloxy)-N-(1H-pyrazol-3-yl)-N-(thiophen-2-ylmethyl)acetamide]?
A: EC50 WS-3 Ratio (hTRPM8; Table 1): 782471; EC50 (hTRPM8; [2]): 0.009 nM

Q: Which “EC50 WS-3 Ratio” value (hTRPM8; Table 1) does the source give for `Cc1c[nH]nc1N(Cc1cccs1)C(=O)COc1ccc2c(c1)CCC2` [Example B1, 2-(2,3-dihydro-1H-inden-5-yloxy)-N-(4-methyl-1H-pyrazol-3-yl)-N-(thiophen-2-ylmethyl)acetamide] here?
A: Its value is 1000000.

Q: What about the EC50 (hTRPM8; [2]) of the same compound?
A: Its EC50 is 0.001 nM.

Q: And the “Sensory Results: cooling compared with 0 μM WS-3” value ([1]; compound at 5 μM)?
A: The value was “Panelists found 5 μM Compound B2 was significantly more cooling”.

Q: With `O=C(COc1ccc2c(c1)CCC2)N(Cc1cccs1)c1cn[nH]c1` [Example C1, 2-(2,3-dihydro-1H-inden-5-yloxy)-N-(1H-pyrazol-4-yl)-N-(thiophen-2-ylmethyl)acetamide] as the compound, how does the “EC50 WS-3 Ratio” value (hTRPM8; Table 1) read?
A: The value was 502141.

Q: What about the EC50 (hTRPM8; [2]) of the same compound?
A: Its EC50 is 0.017 nM.

Q: With `Cc1ccc(OCC(=O)N(Cc2cccs2)c2ccn[nH]2)cc1` [Example F1, N-(1H-pyrazol-5-yl)-N-(thiophen-2-ylmethyl)-2-(p-tolyloxy)acetamide] as the compound, how does the “EC50 WS-3 Ratio” value (hTRPM8; Table 1) read?
A: The value was 21178.

Q: What about the EC50 (hTRPM8; [2]) of the same compound?
A: The EC50 was 0.205 nM.

Q: What about the “Average Cooling” value ([1]; Table 4, 3 μM in LSB pH ~7.1, 0.1% ethanol, n = 28) of the same compound?
A: The value was 5.1.

Q: What about the “Sensory Results: cooling compared with 0 μM WS-3” value ([1]; compound at 3 μM) of the same compound?
A: Its value is “Panelists found 3 μM Compound F1 was significantly more cooling”.

Q: And the “Sensory Results: cooling compared with 45 μM WS-3” value ([1]; compound at 3 μM)?
A: The value was “not significantly different in cooling”.

Q: For `CCN(Cc1cccs1)C(=O)COc1ccc(C)cc1` [Example U1, N-ethyl-N-(thiophen-2-ylmethyl)-2-(p-tolyloxy)acetamide], which “EC50 WS-3 Ratio” value (hTRPM8; Table 1) is on record?
A: The value was 577.

Q: What about the EC50 (hTRPM8; [2]) of the same compound?
A: Its EC50 is 7.7 nM.

Q: What about the “Sensory Results: cooling compared with 0 μM WS-3” value ([1]; compound at 5 μM) of the same compound?
A: The value was “Panelists found 5 μM Compound U1 was significantly more cooling”.

Q: Which “Average Cooling” value ([1]; Table 2, 45 μM WS-3 control, LSB pH ~7.1, 0.1% ethanol, n = 30) does the source give for `CCNC(=O)C1CC(C)CCC1C(C)C` (centres unmarked) [WS-3, N-Ethyl-p-menthane-3-carboxamide, reference compound] here?
A: Its value is 3.8.

Q: And the “Average Cooling” value ([1]; Table 4, 45 μM WS-3 control, n = 28)?
A: Its value is 5.2.

Q: Which EC50 (hTRPM8; [3]) does the source give for `O=C(COc1ccc(Br)cc1)N(Cc1ccccc1)c1ccccn1` [drawing 234: 4-Br, 2-Pyridyl, Phenyl, reference compound] here?
A: Its EC50 is 15600 nM.

Q: For `O=C(COc1ccc(Br)cc1)N(Cc1cccs1)c1ccccn1` [drawing 234: 4-Br, 2-Pyridyl, Thienyl], which EC50 (hTRPM8; [3]) is on record?
A: The EC50 was 2270 nM.

Q: For `O=C(COc1ccc(Cl)cc1)N(Cc1cccs1)c1ccccn1` [drawing 234: 4-Cl, 2-Pyridyl, Thienyl], which EC50 (hTRPM8; [3]) is on record?
A: Its EC50 is 2320 nM.

Q: For `Cc1ccc(OCC(=O)N(Cc2ccccc2)c2ccccn2)cc1` [drawing 234: 4-Me, 2-Pyridyl, Phenyl, reference compound], which EC50 (hTRPM8; [3]) is on record?
A: Its EC50 is 4720 nM.

Q: For `Cc1ccc(OCC(=O)N(Cc2cccs2)c2ccccn2)cc1` [drawing 234: 4-Me, 2-Pyridyl, Thienyl], which EC50 (hTRPM8; [3]) is on record?
A: Its EC50 is 505 nM.

Q: For `CCN(Cc1ccccc1)C(=O)COc1ccc(C)cc1` [drawing 234: 4-Me, Ethyl, Phenyl, reference compound], which EC50 (hTRPM8; [3]) is on record?
A: The EC50 was 776 nM.

Q: For `CCN(Cc1cccs1)C(=O)COc1ccc(C)cc1` [drawing 234: 4-Me, Ethyl, Thienyl], which EC50 (hTRPM8; [3]) is on record?
A: Its EC50 is 6.9 nM.

Q: For `Cc1ccc(OCC(=O)N(C)Cc2ccccc2)cc1` [drawing 234: 4-Me, Methyl, Phenyl, reference compound], which EC50 (hTRPM8; [3]) is on record?
A: Its EC50 is > 100000 nM.

Q: With `Cc1ccc(OCC(=O)N(C)Cc2cccs2)cc1` [drawing 234: 4-Me, Methyl, Thienyl] as the compound, how does the EC50 (hTRPM8; [3]) read?
A: Its EC50 is 369 nM.

Q: For `CCN(Cc1ccccc1)C(=O)COc1ccccc1` [drawing 234: H, Ethyl, Phenyl, reference compound], which EC50 (hTRPM8; [3]) is on record?
A: Its EC50 is 9210 nM.

Q: For `CCN(Cc1cccs1)C(=O)COc1ccccc1` [drawing 234: H, Ethyl, Thienyl], which EC50 (hTRPM8; [3]) is on record?
A: Its EC50 is 1450 nM.
